For assay [1], the target named is T1, purified Na^+,K^+ -ATPase (Canis lupus familiaris, UniProt P50997).
T1 construct: from tissue; mammalian kidney outer medulla by the cited Jorgensen 1974 method (own knowledge)
In words: inhibition of the activity of the purified Na+,K+-ATPase measured as % of hydrolysis of 32P-ATP. Format: biochemical. From the text:
(§1) To test the affinity for the receptor site of the Na^+,K^+ -ATPase and the agonist or antagonist activity on the enzyme, the following tests were used: a) displacement of the specific ^3 H-ouabain binding from the Na^+,K^+ -ATPase receptor purified according to Jorghensen (Jorghensen P., BBA, 1974, 356, 36) and Erdmann (Erdmann E. et al., Arzneim. Forsh., 1984, 34, 1314); b) inhibition of the activity of the purified Na^+,K^+ -ATPase measured as % of hydrolysis of ^32 P-ATP in presence and in absence of the tested compound (Mall F. et al., Biochem. Pharmacol., 1984, 33, 47).

For assay [2], the target named is T2, Na^+,K^+ -ATPase receptor (Canis lupus familiaris, UniProt P50997).
T2 construct: from tissue; mammalian kidney outer medulla by the cited Jorgensen 1974 method (own knowledge)
Kind of assay: displacement of the specific 3H-ouabain binding from the purified Na+,K+-ATPase receptor.
Description: as §1

The mark [3] stands for this setting: hydrolysis of 32P-ATP, purified Na+,K+-ATPase, read-out: Inhibitory Activity log IC50 (converted).
Where [4] appears, read: displacement of specific 3H-ouabain binding, purified Na+,K+-ATPase, read-out: Binding 3H-Ouab. Displacement log IC50 (converted).

Where a name gives a salt, the structure may show the parent alone. Read-outs that look alike come from different tables or passages of the source.

For orientation: IC50 means the point on the concentration scale where inhibition reaches its midpoint. With `C[C@]12CC[C@H](OCCN)C[C@H]1CC[C@@H]1[C@@H]2CC[C@]2(C)[C@@H](c3ccoc3)CC[C@]12O` [Comp. I-aa, 3β-(2-Aminoethoxy)-17β-(3-furyl)-5β-androstan-14β-ol], the values for the IC50 in assay [1] and in assay [2] were 0.501 µM and 0.158 µM, respectively.

For the compound `C[C@]12CC[C@H](OCCCCN)C[C@H]1CC[C@@H]1[C@@H]2CC[C@]2(C)[C@@H](c3ccoc3)CC[C@]12O` [Comp. I-ac, 3β-(4-Aminobutoxy)-17β-(3-furyl)-5β-androstan-14β-ol], the IC50 in assay [1] is 2 µM; in assay [2], 0.398 µM.

On to `C[C@]12CC[C@H](OCCN3CCCC3)C[C@H]1CC[C@@H]1[C@@H]2CC[C@]2(C)[C@@H](c3ccoc3)CC[C@]12O` [Comp. I-ad, 3β-(2-(1-Pyrrolydinyl)ethoxy)-17β-(3-furyl)-5β-androstan-14β-ol], for which the IC50 in assay [1] is 1 µM; in assay [2] it was 0.158 µM.

Consider `C[C@]12CC[C@H](OCCCN3CCNCC3)C[C@H]1CC[C@@H]1[C@@H]2CC[C@]2(C)[C@@H](c3ccoc3)CC[C@]12O` [Comp. I-af, 3β-(3-(1-Piperazinyl)propoxy)-17β-(3-furyl)-5.β-androstan-14β-ol], for which the half-maximal inhibitory concentration (IC50) in assay [1] (setting [3]) was 1.26 µM; in assay [2] it was 0.1 µM.

For the compound `C[C@]12CC[C@H](OCCOCCN3CCCC3)C[C@H]1CC[C@@H]1[C@@H]2CC[C@]2(C)[C@@H](c3ccoc3)CC[C@]12O` [Comp. I-ah, 3β-(2-(2-(1-Pyrrolidinyl)ethoxy)ethoxy)-17β-(3-furyl)-5β-androstan-14β-ol], the 50% inhibitory concentration (IC50) is 0.794 µM in assay [1] and 0.158 µM in assay [2].

In the case of `CN(C)CCCOCCO[C@H]1CC[C@@]2(C)[C@H](CC[C@@H]3[C@@H]2CC[C@]2(C)[C@@H](c4ccoc4)CC[C@]32O)C1` [Comp. I-aj, 3β-(2-(3-Dimethylaminopropoxy)-ethoxy)-17β-(3-furyl)-5β-androstan-14β-ol], the values for the concentration for half-maximal inhibition (IC50) in assay [1] (setting [3]) and in assay [2] were 1.26 µM and 0.158 µM, respectively.

With `C[C@]12CC[C@H](OCC[N+]3(C)CCCC3)C[C@H]1CC[C@@H]1[C@@H]2CC[C@]2(C)[C@@H](c3ccoc3)CC[C@]12O` [Comp. I-ak, 3β-(2-(N-methyl-1-pyrrolydinium)ethoxy)-17β-(3-furyl)-5β-androstan-14β-ol iodide], the IC50 in assay [1] (setting [3]) was 1.26 µM; in assay [2], 0.158 µM.

On to `C[C@]12CC[C@H](OCCCNC(=N)N)C[C@H]1CC[C@@H]1[C@@H]2CC[C@]2(C)[C@@H](c3ccoc3)CC[C@]12O` [Comp. I-am, 3β-(3-Guanidinopropxy)-17β-(3-furyl)-5β-androstan-14β-ol nitrate], for which the IC50 in assay [1] is 3.16 µM; in assay [2], 0.2 µM.

Take `CNCCO[C@H]1CC[C@@]2(C)[C@H](CC[C@@H]3[C@@H]2CC[C@]2(C)[C@@H](c4ccoc4)CC[C@]32O)C1` [Comp. I-an, 3β-(2-Methylaminoethoxy)-17β-(3-furyl)-5β-androstan-14β-ol]: the results for the IC50 in assay [1] and in assay [2] were 1.58 µM and 0.2 µM, respectively.

With `C[C@]12CC[C@H](OCC(N)CN)C[C@H]1CC[C@@H]1[C@@H]2CC[C@]2(C)[C@@H](c3ccoc3)CC[C@]12O` (stereo partly drawn) [Comp. I-ao, 3β-(2,3-Diaminopropoxy)-17β-(3-furyl)-5β-androstan-14β-ol], the IC50 in assay [1] was 1.58 µM; in assay [2] it was 0.316 µM.

In the case of `C[C@]12CC[C@H](OCC(CN3CCCC3)N3CCCC3)C[C@H]1CC[C@@H]1[C@@H]2CC[C@]2(C)[C@@H](c3ccoc3)CC[C@]12O` (stereo partly drawn) [Comp. I-ap, 3β-(2,3-Bis(1-pyrrolidinyl)propoxy)-17β-(3-furyl)-5β-androstan-14β-ol], the IC50 in assay [1] is 1.58 µM; in assay [2] it was 0.398 µM.

For the compound `CO[C@]12CC[C@H](c3ccoc3)[C@@]1(C)CC[C@H]1[C@H]2CC[C@@H]2C[C@@H](OCCCN)CC[C@@]21C` [Comp. I-ar], the IC50 in assay [1] (setting [3]) was 25.1 µM; in assay [2] (setting [4]), 3.16 µM.

On to `CO[C@]12CC[C@H](c3ccoc3)[C@@]1(C)CC[C@H]1[C@H]2CC[C@@H]2C[C@@H](OCCN3CCCC3)CC[C@@]21C` [Comp. I-as, 3β-(2-(1-Pyrrolydinyl)ethoxy)-14β-methoxy-17β-(3-furyl)-5β-androstane oxalate], for which the IC50 in assay [1] (setting [3]) is 25.1 µM; in assay [2] (setting [4]), 5.01 µM.

On to `C[C@]12CC[C@H](OCCCN)C=C1CC[C@@H]1[C@@H]2CC[C@]2(C)[C@@H](c3ccoc3)CC[C@]12O` [Comp. I-at, 3β-(3-Aminopropoxy)-17β-(3-furyl)-androst-4-en-14β-ol], for which the half-maximal inhibitory concentration (IC50) in assay [1] was 2.51 µM; in assay [2] (setting [4]), 0.631 µM.

With `C[C@]12CC[C@H](OCCN3CCCC3)C=C1CC[C@@H]1[C@@H]2CC[C@]2(C)[C@@H](c3ccoc3)CC[C@]12O` [Comp. I-au, 3β-(2-(1-Pyrrolidinyl)ethoxy)-17β-(3-furyl)-androst-4-en-14β-ol oxalate], the IC50 in assay [1] was 1.58 µM; in assay [2] it was 0.316 µM.

In the case of `C[C@]12CC[C@H](OCCCN)CC1=CC[C@@H]1[C@@H]2CC[C@]2(C)[C@@H](c3ccoc3)CC[C@]12O` [Comp. I-av, 3β-(3-Aminopropoxy)-17β-(3-furyl)-androst-5-en-14β-ol], the IC50 in assay [1] was 2.51 µM; in assay [2] (setting [4]), 0.631 µM.

In the case of `C[C@]12CC[C@H](OCCN3CCCC3)CC1=CC[C@@H]1[C@@H]2CC[C@]2(C)[C@@H](c3ccoc3)CC[C@]12O` [Comp. I-aw, 3β-(2-(1-Pyrrolidinyl)ethoxy)-17β-(3-furyl)-androst-5-en--14β-ol], the IC50 in assay [1] (setting [3]) is 6.31 µM; in assay [2], 1.58 µM.

With `C[C@]12CC[C@H](OCCN3CCCC3)C[C@@H]1CC[C@@H]1[C@@H]2CC[C@]2(C)[C@@H](c3ccoc3)CC[C@]12O` [Comp. I-ay, 3β-(2-(1-Pyrrolidinyl)ethoxy)-17β-(3-furyl)-5α-androstan-14β-ol], the IC50 in assay [1] was 3.16 µM; in assay [2] it was 0.398 µM.

As for `C[C@]12CC[C@H](OCCN3CCCC3)C[C@H]1CC[C@@H]1[C@@H]2CC[C@]2(C)[C@@H](c3ccoc3)C[C@H]3O[C@]132` [Comp. I-ba, 3β-(2-(1-Pyrrolidinyl)ethoxy)-14β,15β-epoxy-17β-(3-furyl)-5β-androstane oxalate], the values for the IC50 in assay [1] and in assay [2] were 1.58 µM and 0.631 µM, respectively.

For the compound `C[C@]12CC[C@H](OCCN3CCCC3)C=C1CC[C@@H]1[C@@H]2CC[C@]2(C)[C@@H](c3ccoc3)C[C@H]3O[C@]132` [Comp. I-bc, 3β-(2-(1-Pyrrolidinyl)ethoxy)-14β,15β-epoxy-17β-(3-furyl)-androst-4-ene], the concentration for half-maximal inhibition (IC50) in assay [1] was 2 µM; in assay [2] it was 0.316 µM.

For `C[C@]12CC[C@H](SCCN3CCOCC3)C[C@H]1CC[C@@H]1[C@@H]2CC[C@]2(C)[C@@H](c3ccoc3)CC[C@]12O` [Comp. I-bu, 3β-(2-(4-Morpholinoethylthio)-17β-(3-furyl)-5β-androstan-14β-ol oxalate], the IC50 in assay [1] was 0.631 µM; in assay [2], 0.316 µM.

With `C[C@]12CC[C@H](SCCCN3CCNCC3)C[C@H]1CC[C@@H]1[C@@H]2CC[C@]2(C)[C@@H](c3ccoc3)CC[C@]12O` [Comp. I-bx, 3β-(3-(1-Piperazinyl)propylthio)-17β-(3-furyl)-5β-androstan-14β-ol dioxalate], the values for the IC50 in assay [1] and in assay [2] were 1 µM and 0.501 µM, respectively.

In the case of `C[C@]12CC[C@H](SCCN3CCCC3)C=C1CC[C@@H]1[C@@H]2CC[C@]2(C)[C@@H](c3ccoc3)CC[C@]12O` [Comp. I-ce, 3β-(2-(1-Pyrrolidinyl)ethylthio)-17β-(3-furyl)-androst-4-en-14β-ol oxalate], the IC50 in assay [1] is 3.16 µM; in assay [2] it was 1 µM.

Source of the values: US5593982A, “Cyclopentanperhydrophenanthren-17β-(3-furyl)-3-derivatives and pharmaceutical compositions comprising same for the treatment of cardiovascular disorders” (Sigma-Tau Industrie Farmaceutiche Riunite S.p.A., priority 1992, dated 1997).
